Results taken from article PMC3138190 (Bioorganic & medicinal chemistry, 2011).
Blank lines part the entries; values can stand above or below the compound they belong to.

Legend:
human TS = human TS (Homo sapiens, UniProt P04818); experiment: Thymidylate synthase; assay type: biochemical
human DHFR = target: T1, human DHFR (Homo sapiens, UniProt P00374); experiment: Dihydrofolate reductase; assay type: biochemical; conditions: for activity against DHFR in words: DHFR from different sources
T1 sequence (P00374 1-187): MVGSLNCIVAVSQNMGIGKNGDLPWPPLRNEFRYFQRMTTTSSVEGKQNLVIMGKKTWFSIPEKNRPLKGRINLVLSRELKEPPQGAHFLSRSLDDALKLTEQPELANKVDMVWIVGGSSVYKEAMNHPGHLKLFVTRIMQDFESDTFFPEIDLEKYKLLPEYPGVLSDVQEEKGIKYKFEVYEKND

[1] = system: hFPGS, from CCRF-CEM cells; conditions: at concentrations up to 1045 μM; cited from earlier work
FPGS = conditions: addition of only one additional glutamic acid; cited from earlier work

Chain of human TS (P04818 whole entry): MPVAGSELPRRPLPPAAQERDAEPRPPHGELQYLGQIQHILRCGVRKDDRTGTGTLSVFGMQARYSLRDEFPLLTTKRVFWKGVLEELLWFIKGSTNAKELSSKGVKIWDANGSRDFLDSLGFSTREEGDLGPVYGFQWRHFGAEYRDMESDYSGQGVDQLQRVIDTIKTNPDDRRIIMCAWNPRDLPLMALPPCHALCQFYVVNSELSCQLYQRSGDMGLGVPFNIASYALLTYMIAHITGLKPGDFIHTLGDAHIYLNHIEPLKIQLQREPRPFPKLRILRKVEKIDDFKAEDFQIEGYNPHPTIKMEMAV

Structure (SMILES): Nc1nc2sc3cccc(CNc4ccc(C(=O)N[C@@H](CCC(=O)O)C(=O)O)cc4)c3c2c(=O)[nH]1 [Compound 6, N-(4-{[(2-amino-4-oxo-3,4-dihydro[1]benzothieno[2,3-d]pyrimidin-5-yl)methyl]amino}benzoyl)-L-glutamic acid]
potency against hDHFR relative to MTX (less potent) (human DHFR): about 5 times

Structure (SMILES): Cc1[nH]c2nc(N)[nH]c(=O)c2c1Sc1ccc(C(=O)N[C@@H](CCC(=O)O)C(=O)O)cc1 [Compound 3, N-{4-[(2-amino-6-methyl-4-oxo-4,7-dihydro-3H-pyrrolo[2,3-d]pyrimidin-5-yl)thio]benzoyl}-L-glutamic acid]
substrate activity for hFPGS [1]: not a substrate

Structure (SMILES): Cc1nc2ccc3ccc(CNc4ccc5c(c4)CN([C@@H](CCC(=O)O)C(=O)O)C5=O)cc3c2c(=O)[nH]1 [Compound 2]
substrate activity for FPGS (FPGS): excellent substrate

Now from value to compound:

potency against hTS relative to 4 (less potent) (human TS; hTS, rigid versus flexible side chain, 2-methyl): 3 fold | activity against DHFR in words (human DHFR): inactive
Structure (SMILES): Cc1nc2sc3cccc(CNc4ccc5c(c4)CN([C@@H](CCC(=O)O)C(=O)O)C5=O)c3c2c(=O)[nH]1 [Compound 5, (2S)-2-(5-{[(2-methyl-4-oxo-3,4-dihydro[1]benzothieno[2,3-d]pyrimidin-5-yl)methyl]amino}-1-oxo-1,3-dihydro-2H-isoindol-2-yl)pentanedioic acid]

potency against hTS relative to compound 1 (more potent) (human TS; hTS): 2 fold | potency relative to 6 (human TS; rigid versus flexible side chain, 2-amino): twice as potent | potency against hDHFR relative to MTX (less potent) (human DHFR): about 5 times
Structure (SMILES): Nc1nc2sc3cccc(CNc4ccc5c(c4)CN([C@@H](CCC(=O)O)C(=O)O)C5=O)c3c2c(=O)[nH]1 [Compound 7, (2S)-2-(5-{[(2-Amino-4-oxo-3,4-dihydro[1]benzothieno[2,3-d]pyrimidin-5-yl)methyl]amino}-1-oxo-1,3-dihydro-2H-isoindol-2-yl)pentanedioic acid]

activity against DHFR in words (human DHFR): inactive
Structure (SMILES): Cc1nc2sc3cccc(CNc4ccc(C(=O)N[C@@H](CCC(=O)O)C(=O)O)cc4)c3c2c(=O)[nH]1 [Compound 4, N-(4-{[(2-methyl-4-oxo-3,4-dihydro[1]benzothieno[2,3-d]pyrimidin-5-yl)methyl]amino}benzoyl)-L-glutamic acid]
